{"source": "patent US20180289709A1", "about": "“METHODS OF TREATING INFLAMMATION” (priority 2010, published 2018)", "key": {"BMDCs [1]": {"system": "BMDCs", "assay": "qPCR of antiviral and inflammatory gene mRNAs in TLR-stimulated BMDCs", "conditions": "for transcription of mRNAs for antiviral cytokines (Ifnb1, Cxcl10): inhibitor 1 hour prior to stimulation"}, "BMDCs [2]": {"system": "BMDCs", "assay": "Genome-wide mRNA profiles (microarray) of BMDCs treated with BI 2536 or DMSO before LPS or poly(I:C)", "format": "cell-based, mouse", "conditions": "for antiviral genes among genes repressed by BI 2536 compared to DMSO: at least 3-fold change"}, "BMDCs [3]": {"system": "BMDCs", "assay": "SILAC-based phosphoproteomics of LPS-stimulated BMDCs pre-treated with BI 2536 versus DMSO"}, "[4]": {"conditions": "mouse, in vivo; cited from earlier work"}, "BMDCs [5]": {"system": "BMDCs", "assay": "BMDC viability (Alamar blue)", "format": "cell-based, mouse", "conditions": "treatment pre-stimulation"}, "BMDCs [6]": {"system": "BMDCs", "assay": "IFN-β ELISA of BMDC culture supernatants", "format": "cell-based, mouse", "conditions": "BMDC supernatant, LPS 6 h; 1 μM", "description": "Cell culture supernatants were assayed using a sandwich ELISA kit for mouse IFN-β (PBL Biomedical Laboratories)."}, "[7]": {"conditions": "humans (Mross et al., 2008); cited from earlier work"}, "[8]": {"system": "pDCs (Flt3L-induced BMDCs)", "assay": "qPCR and nCounter mRNA measurement in plasmacytoid DCs stimulated with CpG-A, CpG-B or EMCV", "conditions": "1 μM"}, "BMDCs [9]": {"system": "BMDCs", "assay": "Cell cycle analysis (propidium iodide DNA content, flow cytometry)", "format": "cell-based, mouse", "conditions": "propidium iodide DNA content after 0, 6, 12 h treatment", "description": "Cells were fixed in ethanol, washed, and stained for 30 min at room temperature (RT) with propidium iodide (100 μg/mL) prepared in PBS (calcium- and magnesium-free) supplemented with RNAse A (2 mg/mL; Novagen) and triton X-100 (0.1%). Samples were analyzed for DNA content using an Accuri C6 flow cytometer (Accuri) and data was processed using the FlowJo software (Treestar)."}, "IRF3": {"system": "IRF3", "assay": "IRF3 nuclear translocation by confocal microscopy, BMDCs on silicon nanowires", "format": "cell-based, mouse", "description": "(§1) BMDCs were plated on top of etched silicon nanowires (Si NWs) coated with small molecules (Shalek et al., 2010). After 24 hours, cells were stimulated with LPS or poly(I:C), and then fixed in 4% formaldehyde in PBS (RT, 10 min). After fixation, each sample was permeabilized with 0.25% Triton-X 100 in PBS (RT, 10 min), incubated with Image-iT FX Signal Enhancer (RT, 30 min), and then blocked with 10% goat serum and 0.25% Triton-X 100 in PBS (RT, 1 hour). After washing, the samples were placed in 3% IgG-Free BSA & 0.25% Triton-X 100 in PBS that contained primary antibodies against either IRF3 or NF-κB P65 (1:175 dilution) and then rocked overnight at 4° C. The following day, the samples were washed with PBS and then incubated with an Alexa Fluor labeled secondary antibody (1:250 dilution) in 3% IgG-Free BSA & 0.25% Triton-X 100 in PBS (RT, 60 min). After washing with PBS, the samples were counterstained with 300 ng/mL of DAPI in PBS (RT, 30 min). For each experiment, every stimulus-molecule combination was prepared in triplicate. Once fixed, samples were imaged using an upright confocal microscope (Olympus). For each captured image, the nuclear fraction of the fluorescent protein was calculated after identifying nuclear boundaries using DAPI. Finally, distributions for this quantity across different conditions were compared using a one-way ANOVA analysis."}, "NF-κB p65": {"system": "NF-κB p65", "assay": "NF-κB p65 nuclear translocation by confocal microscopy, BMDCs on silicon nanowires", "format": "cell-based, mouse", "conditions": "nanowire-mediated delivery; LPS 30 min", "description": "as §1"}, "[10]": {"system": "conventional DCs (GM-CSF-induced BMDCs)", "format": "cell-based, mouse"}, "VSV": {"system": "VSV", "format": "in vivo, mouse", "conditions": "mice, VSV intra-footpad, 6 hours post-infection"}, "[11]": {"system": "primary mouse lung fibroblasts (MLFs)", "conditions": "1 μM"}, "[12]": {"conditions": "BMDCs, LPS, increasing amounts of BI 2536, dose-dependent"}, "[13]": {"conditions": "DCs stimulated with LPS, poly(I:C) or Pam3CSK4, 1 μM"}}, "note": "“Also recorded” adds a separate entry of the source. Like-named read-outs stand apart in the source and are kept apart here."}
{"smiles": "COc1cc2ncn(-c3cc(OCc4ccccc4C(F)(F)F)c(C(N)=O)s3)c2cc1OC", "note": "[5-(5,6-Dimethoxy-1H-benzimidazol-1-yl)-3-[[2-(trifluoromethyl)phenyl]methoxy]-2-thiophenecarboxamide]", "values": [{"measurement": "transcription of mRNAs for antiviral cytokines (Ifnb1, Cxcl10)", "setting": "BMDCs [1]; BMDCs, LPS", "result": "abrogate"}]}
{"smiles": "CC[C@@H]1C(=O)N(C)c2cnc(Nc3ccc(C(=O)NC4CCN(C)CC4)cc3OC)nc2N1C1CCCC1", "note": "[BI 2536]", "values": [{"measurement": "Cxcl1 expression (qPCR)", "setting": "BMDCs [1]; BMDCs, LPS, increasing amounts of BI 2536", "result": "not significantly affected"}, {"measurement": "Cxcl10 mRNA level (qPCR)", "setting": "BMDCs [1]; [12]", "result": "reduced"}, {"measurement": "Ifnb1 mRNA level (qPCR)", "setting": "BMDCs [1]; [12]", "result": "reduced"}, {"measurement": "expression of 12 well-studied antiviral genes (qPCR)", "setting": "BMDCs [1]; [13]", "result": "strongly inhibited"}, {"measurement": "inflammatory gene expression (qPCR)", "setting": "BMDCs [1]; [13]", "result": "remained largely unaffected"}, {"measurement": "antiviral genes among genes repressed by BI 2536 compared to DMSO", "setting": "BMDCs [2]; LPS", "result": "67/194"}, {"measurement": "unique LPS- and/or poly(I:C)-induced genes repressed", "setting": "BMDCs [2]; downregulated 3-fold upon LPS or poly(I:C) stimulation", "result": 311, "unit": "genes"}, {"measurement": "antiviral genes among genes repressed by BI 2536 compared to DMSO", "setting": "BMDCs [2]; poly(I:C), P<1×10^−71, hypergeometric test", "result": "99/193"}, {"measurement": "phosphorylation levels of Jun family cell cycle regulators (Jund)", "setting": "BMDCs [3]; LPS", "result": "decreased"}, {"measurement": "phosphorylation levels of mitotic kinases Nek6 and Nek7", "setting": "BMDCs [3]; LPS", "result": "decreased"}, {"measurement": "phosphorylation levels of proteins in the TBK1/IKK-ε/IRF3 axis", "setting": "BMDCs [3]; LPS", "result": "unchanged"}, {"measurement": "distinct proteins from which the changed phosphopeptides derive", "setting": "BMDCs [3]; LPS 30 or 120 min, 1 μM", "result": 413, "unit": "proteins"}, {"measurement": "phosphopeptides with significant (P<0.001) change in level", "setting": "BMDCs [3]; LPS 30 or 120 min, 1 μM", "result": 510, "unit": "phosphopeptides"}, {"measurement": "tolerability", "setting": "[4]", "result": "good tolerability"}, {"measurement": "viability of BMDCs", "setting": "BMDCs [5]", "result": "neither impacted"}, {"measurement": "secreted IFN-β (ELISA)", "setting": "BMDCs [6]", "result": "reduced; also recorded: strongly inhibits"}, {"measurement": "tolerability", "setting": "[7]", "result": "good tolerability"}, {"measurement": "CpG-B-specific signature genes (nCounter)", "setting": "[8]; 6 h", "result": "a minor effect, if any"}, {"measurement": "signature genes induced by CpG-A alone or by both CpG-A and -B (nCounter)", "setting": "[8]; 6 h", "result": "repressed"}, {"measurement": "transcription of mRNAs for Ifnb1, Ifna2 and Cxcl10", "setting": "[8]; CpG-A stimulation or EMCV infection (MOI 10)", "result": "nearly abrogated"}, {"measurement": "Cxcl1 mRNA", "setting": "[8]; CpG-B", "result": "moderately increasing"}, {"measurement": "Cxcl10 mRNA", "setting": "[8]; CpG-B", "result": "decreased"}, {"measurement": "cell cycle state of BMDCs", "setting": "BMDCs [9]", "result": "neither impacted"}, {"measurement": "IRF3 nuclear translocation", "setting": "IRF3; nanowire-mediated delivery, poly(I:C) 2 h or LPS 45 min, dose-dependent", "result": "inhibited"}, {"measurement": "IRF3 translocation, delivery in solution", "setting": "IRF3; poly(I:C) 2 h, lesser extent than nanowire-mediated delivery", "result": "decreased"}, {"measurement": "NF-κB p65 localization", "setting": "NF-κB p65", "result": "did not affect"}, {"measurement": "mRNA level of Cxcl1", "setting": "[10]", "result": "neither affected"}, {"measurement": "transcription of antiviral genes (Ifnb1 and Cxcl10)", "setting": "[10]; 1 μM", "result": "inhibited"}, {"measurement": "Ifna2 mRNA (type I IFN α2) in popliteal lymph nodes", "setting": "VSV", "result": "inhibits"}, {"measurement": "VSV replication in the lymph node (VSV RNA levels)", "setting": "VSV", "result": "rapidly increased"}, {"measurement": "antiviral cytokine mRNA (Ifnb1, Cxcl10) in popliteal lymph nodes", "setting": "VSV; 500 μg i.v. and 50 μg footpad", "result": "strongly suppressed; also recorded: inhibits"}, {"measurement": "drug-induced toxicity (cell viability, CellTiter-Glo)", "setting": "[11]", "result": "not due to drug-induced toxicity"}, {"measurement": "interferon production (Ifnb1 mRNA)", "setting": "[11]", "result": "failed to produce interferon"}]}
{"smiles": "COc1ccc(Br)cc1/C=c1\\sc2nc(=O)c(C)nn2c1=O", "note": "[Poloxipan]", "values": [{"measurement": "transcription of mRNAs for antiviral cytokines (Ifnb1, Cxcl10)", "setting": "BMDCs [1]; BMDCs, LPS", "result": "abrogate"}]}
